Data published in ChEMBL document CHEMBL5465560, “Selectivity Literature for EUbOPEN Chemogenomic Library” (2024).

Tests used:
[1] = target: T1, Tyrosine-protein kinase JAK3 (Homo sapiens) (UniProt P52333); settings: at 10 µM
T1 sequence (whole entry): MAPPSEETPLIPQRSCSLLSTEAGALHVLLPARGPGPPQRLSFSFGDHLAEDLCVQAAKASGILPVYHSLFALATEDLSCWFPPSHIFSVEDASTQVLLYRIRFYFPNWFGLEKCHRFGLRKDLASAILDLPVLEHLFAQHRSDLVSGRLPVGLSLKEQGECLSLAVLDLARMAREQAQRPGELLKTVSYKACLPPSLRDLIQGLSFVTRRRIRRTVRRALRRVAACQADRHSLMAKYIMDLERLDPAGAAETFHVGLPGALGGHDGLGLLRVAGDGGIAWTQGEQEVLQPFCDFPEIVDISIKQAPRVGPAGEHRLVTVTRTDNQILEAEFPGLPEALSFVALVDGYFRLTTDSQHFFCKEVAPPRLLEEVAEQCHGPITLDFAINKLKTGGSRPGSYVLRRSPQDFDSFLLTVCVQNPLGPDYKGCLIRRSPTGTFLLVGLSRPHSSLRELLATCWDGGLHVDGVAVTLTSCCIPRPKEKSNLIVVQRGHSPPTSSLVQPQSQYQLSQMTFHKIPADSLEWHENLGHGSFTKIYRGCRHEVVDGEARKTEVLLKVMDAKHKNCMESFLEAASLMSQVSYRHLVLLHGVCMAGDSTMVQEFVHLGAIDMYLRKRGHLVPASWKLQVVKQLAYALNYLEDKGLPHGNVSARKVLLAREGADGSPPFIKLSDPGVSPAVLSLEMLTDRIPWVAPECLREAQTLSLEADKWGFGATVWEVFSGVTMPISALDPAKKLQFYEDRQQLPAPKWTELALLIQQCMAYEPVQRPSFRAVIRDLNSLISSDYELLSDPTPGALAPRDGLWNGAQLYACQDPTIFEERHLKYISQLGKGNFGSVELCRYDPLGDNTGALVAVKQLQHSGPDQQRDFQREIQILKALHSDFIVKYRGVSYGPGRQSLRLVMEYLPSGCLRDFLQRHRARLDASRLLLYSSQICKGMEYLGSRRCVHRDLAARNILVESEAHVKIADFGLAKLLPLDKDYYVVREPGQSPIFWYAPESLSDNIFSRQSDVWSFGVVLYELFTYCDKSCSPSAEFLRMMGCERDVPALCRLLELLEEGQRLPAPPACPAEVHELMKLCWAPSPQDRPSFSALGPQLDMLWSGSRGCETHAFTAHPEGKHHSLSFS

[2] = target: Serine/threonine-protein kinase PAK 2 (Homo sapiens) (UniProt Q13177); assay: Selectivity interaction (Millipore kinase profiler) EUB0000124b PAK2; settings: at 10 µM
[3] = target: Insulin receptor (Homo sapiens, UniProt P06213); settings: at 3 µM
[4] = target: Ribosomal protein S6 kinase alpha-6 (Homo sapiens, UniProt Q9UK32); settings: at 10 µM
[5] = target: CDK17/Cyclin-Y (Homo sapiens) (UniProt Q00537+Q8ND76); assay: Selectivity interaction (Kinase panel (Z-LYTE Assay)) EUB0001632a CDK17; format: protein-complex assay; settings: at 10 µM
[6] = target: T2, TGF-beta receptor type-1 (Homo sapiens) (UniProt P36897); assay: Selectivity interaction (LanthaScreen Eu Kinase Binding Assay) EUB0001632a TGFBR1; settings: at 10 µM
T2 sequence (whole entry): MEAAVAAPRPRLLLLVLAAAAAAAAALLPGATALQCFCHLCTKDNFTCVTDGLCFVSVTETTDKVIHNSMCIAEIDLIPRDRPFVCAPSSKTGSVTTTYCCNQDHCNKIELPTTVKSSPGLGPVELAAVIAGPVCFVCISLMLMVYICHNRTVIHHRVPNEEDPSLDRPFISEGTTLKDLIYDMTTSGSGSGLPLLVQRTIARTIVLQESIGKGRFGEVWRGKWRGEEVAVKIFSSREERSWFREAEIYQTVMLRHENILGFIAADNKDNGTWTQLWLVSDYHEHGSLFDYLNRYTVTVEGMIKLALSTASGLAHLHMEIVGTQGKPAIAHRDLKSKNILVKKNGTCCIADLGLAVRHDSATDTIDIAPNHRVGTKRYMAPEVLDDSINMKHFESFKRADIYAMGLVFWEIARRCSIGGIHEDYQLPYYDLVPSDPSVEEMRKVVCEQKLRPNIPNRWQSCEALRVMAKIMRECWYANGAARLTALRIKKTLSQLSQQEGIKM

[7] = target: Dual specificity protein kinase CLK3 (Homo sapiens, UniProt P49761); assay: Selectivity interaction (KinomeScan (DiscoverX)) EUB0001049a CLK3; settings: at 1 µM
[8] = target: Cannabinoid receptor 1 (Homo sapiens, UniProt P21554); assay: Selectivity interaction (Panel of non-epigenetic targets (kinases, GPCRs, ion channels, and transporters, Eurofins) ) EUB0000271b CNR1; settings: at 1 µM
[9] = target: Cyclin-dependent kinase 14 (Homo sapiens) (UniProt O94921); assay: Selectivity interaction (KinomeScan (DiscoverX)) EUB0000045b CDK14
[10] = target: T3, Inhibitor of nuclear factor kappa-B kinase subunit epsilon (Homo sapiens) (UniProt Q14164); assay: Selectivity interaction (Ambit KINOMEscan and KiNATiv profiling in Jurkat cells) EUB0000090b IKBKE; format: cell-based; settings: at 1 µM
T3 sequence (whole entry): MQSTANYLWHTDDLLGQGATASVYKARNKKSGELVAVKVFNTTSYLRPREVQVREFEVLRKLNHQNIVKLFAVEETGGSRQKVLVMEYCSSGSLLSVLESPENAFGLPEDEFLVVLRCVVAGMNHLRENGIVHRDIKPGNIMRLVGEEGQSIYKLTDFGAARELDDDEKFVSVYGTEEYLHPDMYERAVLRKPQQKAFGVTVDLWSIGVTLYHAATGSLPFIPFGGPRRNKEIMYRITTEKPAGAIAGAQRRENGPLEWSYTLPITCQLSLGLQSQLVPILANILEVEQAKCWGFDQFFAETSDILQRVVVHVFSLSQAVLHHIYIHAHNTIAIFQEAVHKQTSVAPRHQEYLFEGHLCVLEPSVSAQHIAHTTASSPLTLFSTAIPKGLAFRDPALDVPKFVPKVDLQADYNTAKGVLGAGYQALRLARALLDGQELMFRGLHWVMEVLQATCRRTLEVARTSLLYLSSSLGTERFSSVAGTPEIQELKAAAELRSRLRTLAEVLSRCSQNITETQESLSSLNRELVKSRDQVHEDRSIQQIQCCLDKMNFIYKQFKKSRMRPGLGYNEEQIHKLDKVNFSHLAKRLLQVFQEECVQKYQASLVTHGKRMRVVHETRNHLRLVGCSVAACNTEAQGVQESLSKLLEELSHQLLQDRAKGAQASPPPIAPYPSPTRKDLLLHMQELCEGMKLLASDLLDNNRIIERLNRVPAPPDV

[11] = target: Mast/stem cell growth factor receptor Kit (Homo sapiens, UniProt P10721); assay: Selectivity interaction (KinomeScan (DiscoverX)) EUB0001619a KIT; settings: at 1 µM
Mast/stem cell growth factor receptor Kit, sequence (P10721 whole entry): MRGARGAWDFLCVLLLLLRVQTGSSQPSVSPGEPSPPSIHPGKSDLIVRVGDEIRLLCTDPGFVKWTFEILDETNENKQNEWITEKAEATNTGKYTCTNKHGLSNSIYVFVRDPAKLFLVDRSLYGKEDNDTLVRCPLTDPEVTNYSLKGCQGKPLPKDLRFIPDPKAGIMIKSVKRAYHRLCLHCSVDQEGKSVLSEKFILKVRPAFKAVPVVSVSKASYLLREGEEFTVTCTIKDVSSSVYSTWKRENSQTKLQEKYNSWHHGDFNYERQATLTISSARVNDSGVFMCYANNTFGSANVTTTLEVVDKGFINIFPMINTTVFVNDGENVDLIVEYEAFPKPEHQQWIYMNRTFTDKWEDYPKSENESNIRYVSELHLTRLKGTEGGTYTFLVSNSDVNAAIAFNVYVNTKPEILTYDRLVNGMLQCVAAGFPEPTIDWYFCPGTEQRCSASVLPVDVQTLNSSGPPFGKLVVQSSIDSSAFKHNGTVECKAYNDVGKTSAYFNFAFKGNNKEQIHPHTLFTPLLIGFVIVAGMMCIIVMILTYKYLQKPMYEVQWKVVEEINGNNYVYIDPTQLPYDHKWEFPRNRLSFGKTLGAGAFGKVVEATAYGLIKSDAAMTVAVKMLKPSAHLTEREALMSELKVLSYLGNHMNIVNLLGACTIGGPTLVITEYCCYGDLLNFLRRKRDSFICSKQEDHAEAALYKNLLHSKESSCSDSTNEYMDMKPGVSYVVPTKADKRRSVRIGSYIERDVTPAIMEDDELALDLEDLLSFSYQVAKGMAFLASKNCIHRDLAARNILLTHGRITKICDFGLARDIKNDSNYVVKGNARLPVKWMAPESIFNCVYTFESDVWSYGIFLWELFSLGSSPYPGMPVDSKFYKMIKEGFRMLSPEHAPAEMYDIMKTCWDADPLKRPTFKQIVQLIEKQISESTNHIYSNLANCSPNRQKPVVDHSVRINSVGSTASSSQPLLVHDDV

Cyclin-dependent kinase 14 (Homo sapiens), sequence (O94921 whole entry): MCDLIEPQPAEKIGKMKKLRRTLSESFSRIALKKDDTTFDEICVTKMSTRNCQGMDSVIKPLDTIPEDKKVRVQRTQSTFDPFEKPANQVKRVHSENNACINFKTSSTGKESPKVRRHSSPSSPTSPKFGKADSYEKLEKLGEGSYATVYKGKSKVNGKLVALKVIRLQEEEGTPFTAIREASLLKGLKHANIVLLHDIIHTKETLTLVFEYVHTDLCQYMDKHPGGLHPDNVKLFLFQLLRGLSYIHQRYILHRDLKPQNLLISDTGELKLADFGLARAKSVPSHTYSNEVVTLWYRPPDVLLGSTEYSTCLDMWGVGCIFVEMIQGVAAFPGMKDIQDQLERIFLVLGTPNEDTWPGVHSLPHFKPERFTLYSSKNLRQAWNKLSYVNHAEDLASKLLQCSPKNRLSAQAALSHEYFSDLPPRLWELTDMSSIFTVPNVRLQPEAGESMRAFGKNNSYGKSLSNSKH
Ribosomal protein S6 kinase alpha-6, sequence (Q9UK32 whole entry): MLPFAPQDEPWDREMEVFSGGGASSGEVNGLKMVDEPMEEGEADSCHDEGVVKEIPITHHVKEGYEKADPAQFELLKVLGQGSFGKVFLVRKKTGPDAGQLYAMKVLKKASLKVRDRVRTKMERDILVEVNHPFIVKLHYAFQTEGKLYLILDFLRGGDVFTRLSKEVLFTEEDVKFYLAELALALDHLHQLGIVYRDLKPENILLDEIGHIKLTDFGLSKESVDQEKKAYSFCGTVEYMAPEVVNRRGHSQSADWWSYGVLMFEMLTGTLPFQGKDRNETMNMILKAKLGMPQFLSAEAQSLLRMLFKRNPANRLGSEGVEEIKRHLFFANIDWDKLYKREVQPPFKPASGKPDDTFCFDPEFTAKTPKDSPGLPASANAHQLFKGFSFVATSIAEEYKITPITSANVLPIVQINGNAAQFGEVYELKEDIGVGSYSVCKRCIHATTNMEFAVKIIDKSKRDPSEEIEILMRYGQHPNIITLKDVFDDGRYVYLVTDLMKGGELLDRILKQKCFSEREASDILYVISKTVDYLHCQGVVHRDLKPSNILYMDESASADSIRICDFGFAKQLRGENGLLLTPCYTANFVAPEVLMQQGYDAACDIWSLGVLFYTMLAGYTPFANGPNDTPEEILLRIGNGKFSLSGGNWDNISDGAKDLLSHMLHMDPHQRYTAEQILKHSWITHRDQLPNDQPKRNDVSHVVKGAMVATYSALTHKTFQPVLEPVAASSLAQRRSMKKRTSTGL
Dual specificity protein kinase CLK3, sequence (P49761 whole entry, looked up): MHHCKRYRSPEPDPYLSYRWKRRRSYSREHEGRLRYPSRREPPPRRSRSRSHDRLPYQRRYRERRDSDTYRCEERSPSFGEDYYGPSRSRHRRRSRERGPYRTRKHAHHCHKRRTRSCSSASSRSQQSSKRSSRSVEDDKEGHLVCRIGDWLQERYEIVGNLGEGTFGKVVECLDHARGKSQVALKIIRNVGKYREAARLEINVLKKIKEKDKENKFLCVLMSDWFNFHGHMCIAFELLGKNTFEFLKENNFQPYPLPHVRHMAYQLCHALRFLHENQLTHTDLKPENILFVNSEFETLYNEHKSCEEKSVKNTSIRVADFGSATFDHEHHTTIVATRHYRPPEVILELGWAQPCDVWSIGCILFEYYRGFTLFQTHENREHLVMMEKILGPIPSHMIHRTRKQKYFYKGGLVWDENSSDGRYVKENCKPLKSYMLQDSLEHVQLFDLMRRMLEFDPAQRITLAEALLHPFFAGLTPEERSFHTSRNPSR
Cannabinoid receptor 1, sequence (P21554 whole entry): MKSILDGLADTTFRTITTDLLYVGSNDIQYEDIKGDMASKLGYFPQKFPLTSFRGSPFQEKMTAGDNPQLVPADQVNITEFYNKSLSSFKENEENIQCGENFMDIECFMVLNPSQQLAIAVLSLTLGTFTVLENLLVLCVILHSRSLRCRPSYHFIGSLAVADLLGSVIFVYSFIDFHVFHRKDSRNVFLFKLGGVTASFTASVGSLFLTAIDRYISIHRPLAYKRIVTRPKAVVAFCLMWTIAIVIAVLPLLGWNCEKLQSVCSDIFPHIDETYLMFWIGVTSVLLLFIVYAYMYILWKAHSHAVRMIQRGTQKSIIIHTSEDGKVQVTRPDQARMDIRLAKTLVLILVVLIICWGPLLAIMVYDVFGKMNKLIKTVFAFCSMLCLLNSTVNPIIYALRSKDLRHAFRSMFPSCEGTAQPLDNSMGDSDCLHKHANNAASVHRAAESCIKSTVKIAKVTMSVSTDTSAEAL
Insulin receptor, sequence (P06213 28-758 limits assumed): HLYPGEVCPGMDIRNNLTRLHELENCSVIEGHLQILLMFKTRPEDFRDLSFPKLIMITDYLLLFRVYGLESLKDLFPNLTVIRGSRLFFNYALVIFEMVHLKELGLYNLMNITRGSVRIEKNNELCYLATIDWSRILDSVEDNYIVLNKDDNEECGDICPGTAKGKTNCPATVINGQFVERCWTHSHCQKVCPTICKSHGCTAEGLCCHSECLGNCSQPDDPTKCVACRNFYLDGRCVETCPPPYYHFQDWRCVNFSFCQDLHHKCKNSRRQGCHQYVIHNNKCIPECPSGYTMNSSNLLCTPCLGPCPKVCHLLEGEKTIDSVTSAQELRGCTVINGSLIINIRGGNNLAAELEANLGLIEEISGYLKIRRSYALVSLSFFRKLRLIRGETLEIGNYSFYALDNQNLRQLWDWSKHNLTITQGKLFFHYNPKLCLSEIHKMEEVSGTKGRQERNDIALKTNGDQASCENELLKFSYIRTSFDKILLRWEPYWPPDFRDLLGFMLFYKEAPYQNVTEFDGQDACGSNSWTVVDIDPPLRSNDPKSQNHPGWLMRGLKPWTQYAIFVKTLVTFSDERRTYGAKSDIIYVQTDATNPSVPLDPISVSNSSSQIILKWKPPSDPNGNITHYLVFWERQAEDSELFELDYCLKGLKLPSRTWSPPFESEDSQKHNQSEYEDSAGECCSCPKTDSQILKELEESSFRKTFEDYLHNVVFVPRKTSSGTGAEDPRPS
Insulin receptor, sequence (P06213 763-1382 limits assumed): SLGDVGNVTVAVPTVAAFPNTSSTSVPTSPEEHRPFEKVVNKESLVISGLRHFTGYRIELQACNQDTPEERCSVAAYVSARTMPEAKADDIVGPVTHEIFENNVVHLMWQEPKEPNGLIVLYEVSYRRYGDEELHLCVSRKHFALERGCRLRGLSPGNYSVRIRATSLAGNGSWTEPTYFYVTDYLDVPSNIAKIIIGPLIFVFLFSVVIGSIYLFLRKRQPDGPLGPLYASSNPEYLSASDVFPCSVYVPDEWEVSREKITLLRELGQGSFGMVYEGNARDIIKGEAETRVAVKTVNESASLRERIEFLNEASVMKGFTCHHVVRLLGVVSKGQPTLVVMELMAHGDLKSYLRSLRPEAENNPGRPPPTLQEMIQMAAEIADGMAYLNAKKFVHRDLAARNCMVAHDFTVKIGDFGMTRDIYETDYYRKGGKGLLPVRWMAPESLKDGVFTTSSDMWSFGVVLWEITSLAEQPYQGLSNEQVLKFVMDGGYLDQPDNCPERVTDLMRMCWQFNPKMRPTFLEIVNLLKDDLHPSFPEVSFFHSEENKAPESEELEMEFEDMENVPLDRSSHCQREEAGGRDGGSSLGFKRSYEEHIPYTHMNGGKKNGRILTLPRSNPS
Serine/threonine-protein kinase PAK 2 (Homo sapiens), sequence (Q13177 whole entry): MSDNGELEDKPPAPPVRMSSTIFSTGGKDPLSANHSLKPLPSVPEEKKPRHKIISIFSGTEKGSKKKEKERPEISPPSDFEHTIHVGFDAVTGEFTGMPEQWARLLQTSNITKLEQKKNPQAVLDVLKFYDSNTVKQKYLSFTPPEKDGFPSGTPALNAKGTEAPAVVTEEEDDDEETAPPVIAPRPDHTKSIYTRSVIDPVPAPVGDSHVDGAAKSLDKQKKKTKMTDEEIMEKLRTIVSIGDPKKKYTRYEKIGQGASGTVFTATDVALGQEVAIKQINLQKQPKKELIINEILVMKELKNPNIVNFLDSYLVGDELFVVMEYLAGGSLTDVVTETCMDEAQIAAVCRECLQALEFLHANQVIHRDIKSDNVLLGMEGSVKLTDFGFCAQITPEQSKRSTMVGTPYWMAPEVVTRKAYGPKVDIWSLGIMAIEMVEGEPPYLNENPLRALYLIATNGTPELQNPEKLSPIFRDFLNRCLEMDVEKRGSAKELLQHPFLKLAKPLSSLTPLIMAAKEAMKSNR

For `CCN(CC)CCCCNc1ncc2cc(-c3cc(OC)cc(OC)c3)c(NC(=O)NC(C)(C)C)nc2n1`, the % of control [1] was 100%.
In the case of `CC(=O)Nc1cccc(-n2c(=O)n(C3CC3)c(=O)c3c(Nc4ccc(I)cc4F)n(C)c(=O)c(C)c32)c1`, the % of control [2] was 96%.
With `CCc1cc(Nc2nccc(-c3c(-c4ccc(OC)c(C(=O)Nc5c(F)cccc5F)c4)nc4ccccn34)n2)c(OC)cc1N1CCC(N2CCN(S(C)(=O)=O)CC2)CC1` the % of inhibition [3] was 69%.
`Cc1cc([C@@H](C)Nc2ccccc2C(=O)O)c2nc(N3CCOCC3)cc(=O)n2c1` [AZD-6482] gave a % of control [4] of 71%.
Compound `Cn1cc(-n2cnc3c(NCc4nc5cc(Cl)c(Cl)cc5[nH]4)nc(N4CCOCC4)nc32)cn1` has a % of control [5] of 8.66% and a % of inhibition [6] of 0.691%.
With `COc1cc(Nc2nc(C)cc(-c3cnn4nc(OC)ccc34)n2)cc(C(F)(F)F)c1` the % of control [7] was 80%.
`Cc1cc(C)cc([C@@H]2c3cc(C)ccc3NC(=O)CN2C(=O)c2ccc(Br)s2)c1` was tested, and the % of inhibition [8] was -20%.
In the case of `C=CC(=O)Nc1cc(-n2c(=O)ccc3cnc4ccc(-c5ccc(NS(C)(=O)=O)cc5)cc4c32)ccc1C`, the % of control ([9]; at 1 µM) was 100% and the % of control ([9]; at 10 µM) was 72%.
`CN(C)C/C=C/C(=O)Nc1ccc(C(=O)N2CCCC(Nc3ncc(Cl)c(-c4c[nH]c5ccccc45)n3)C2)cc1` (configuration not stated) gave a % of control [10] of 100%.
In the case of `N#Cc1cccc(-c2c[nH]c3ncnc(N4CCOCC4)c23)c1`, the % of control [11] was 100%.
